The values that follow come from ChEMBL document CHEMBL5233243, “Design and discovery of boronic acid drugs” (Eur J Med Chem, 2020).

pIC50, pKi: −log10 of the molar value. Values after ≈ are worked out from the molar mass of the structure shown. Residues, ends and D or L forms follow the SMILES beside them. *: point of attachment. CF3 = FC(F)(F)*; Moc = COC(=O)*

A short description of data set [1]: Solubility of compound at pH 2. Type of data set: physicochemical. To be noted: buffer.
The target in a further data set is Autotaxin (Homo sapiens, UniProt Q13822). In words: Inhibition of autotaxin (unknown origin).
The nature of data set [2]: Inhibition of beta-lactamase AmpC (unknown origin). The arrangement: species or system Bacteria.
In the next data set the test system is Escherichia coli. Put plainly: Antibacterial activity against Escherichia coli. Type of data set: functional.
Data set [3] concerns Human immunodeficiency virus. Put plainly: Antiviral activity against HIV infected in human MT-2 cells. Type of data set: functional, organism-based. Particulars: Human immunodeficiency virus 1, MT2.
Data set [4] has as its target Human immunodeficiency virus type 1 protease (Human immunodeficiency virus 1, UniProt Q72874). Put plainly: Inhibition of HIV-1 protease.
The next data set addresses T1, Neutrophil elastase (Homo sapiens, UniProt P08246).
T1 sequence (P08246 whole entry): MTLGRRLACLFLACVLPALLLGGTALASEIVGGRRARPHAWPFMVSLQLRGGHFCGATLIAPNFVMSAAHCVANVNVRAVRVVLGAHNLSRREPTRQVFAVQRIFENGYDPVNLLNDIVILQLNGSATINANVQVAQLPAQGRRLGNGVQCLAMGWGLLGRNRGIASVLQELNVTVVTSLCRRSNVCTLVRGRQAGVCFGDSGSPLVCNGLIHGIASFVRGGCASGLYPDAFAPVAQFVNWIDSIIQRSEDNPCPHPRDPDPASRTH
Put plainly: Inhibition of human neutrophil elastase.

In the next data set the test system is MCF7. Put plainly: Antiproliferative activity against human MCF7 cells assessed as inhibition of cell growth incubated for 48 hrs by SRB assay. Particulars: MCF7, 48 h. Type of data set: functional, cell-based. In general terms: In SRB staining, fixed cells bind dye roughly in proportion to their protein.

As usually defined, the solubility is the concentration that dissolves in the medium under given conditions. Lower therefore signals little dissolved substance. On to `COc1ccc(/C=C\c2cc(OC)c(OC)c(OC)c2)cc1B(O)O`, for which the solubility in data set [1] is 33.8 µg/mL (≈ 98.2 µM).

Broadly, the pIC50 is −log10 of the IC50, conventionally taken in molar units. Take `COc1cc(/C=C2\SC(=O)N(Cc3ccc(F)cc3)C2=O)ccc1OCc1ccc(B(O)O)cc1`: on Autotaxin, the pIC50 is 7.55.

Usually pKi stands for the negative decadic logarithm of the Ki, by convention in mol/L. Read a high pKi as a small Ki. As for `O=S(=O)(Cc1ccc(-c2nnn[nH]2)nc1)NCB(O)O`, the pKi in data set [2] is 9.10.

Broadly, the MIC is the lowest concentration found to suppress growth. The low end stands for greater potency, the high end for weaker potency. Consider `OB(O)c1cnn(-c2cc(Cl)ncn2)c1`, for which inhibition of growth against Escherichia coli (MIC) required 1 µg/mL (≈ 4.46 µM). The molecule also showed a pKi in data set [2] of 8.00.

`CC(C)CN(C[C@@H](O)[C@H](Cc1ccccc1)NC(=O)O[C@H]1CO[C@H]2OCC[C@H]21)S(=O)(=O)c1ccc(C(=O)O)cc1`: the negative-log IC50 (pIC50) in data set [3] is less than 6.00. Also, in data set [4], the negative logarithm of the Ki (pKi) was 10.89.

`COC(=O)N[C@H](C(=O)N1CCC[C@H]1C(=O)N[C@H](B(O)O)C(C)C)C(C)C` gave a negative logarithm of the IC50 (pIC50) on Neutrophil elastase of 9.57.

Turning to `CC(C)CN(C[C@@H](O)[C@H](Cc1ccccc1)NC(=O)OC1C2COC3OCC1C3C2)S(=O)(=O)c1ccc(B(O)O)cc1` (stereo partly drawn), the negative logarithm of the IC50 (pIC50) in data set [3] is 7.42. The pKi in data set [4] was 10.81.

`COC(=O)N[C@H](C(=O)N1CCC[C@H]1C(=O)N[C@H](C(=O)C(F)(F)F)C(C)C)C(C)C` (Moc-Val-Pro-Val-CF3) had a pIC50 at Neutrophil elastase of 6.87.

For the molecule `COc1ccc(/C=C\c2cc(OC)c(OC)c(OC)c2)cc1O` [COMBRETASTATIN A4], the solubility in data set [1] worked out at 18.9 µg/mL (≈ 59.7 µM). In the data set on MCF7, the pIC50 was 7.49.
